Here are results for 51 molecules from patent US20200062696A1, “COMPOSITIONS AND METHODS FOR INHIBITING RETICULON 4” (THE REGENTS OF THE UNIVERSITY OF CALIFORNIA, priority 2017, published 2020).

Test [1] relates to SW620 colorectal cancer cells. The test can be described thus: Serum-free cell survival of SW620 cells (Hoescht staining). Conditions: Homo sapiens, SW-620, cysteine-reactive fragment 50 μM, 48 h, vs DMSO, average of n = 3/group, read-out: SW620 survival Ave. In kind it is cell-based. As for the experimental part: (§1) Cell Culture. SW620 cells were purchased from ATCC. SW620 cells were grown in L-15 media with 10% fetal bovine serum (FBS) in ambient CO2. U2OS cells were grown in DMEM media supplemented with 10% FBS at 37° C. with 5% CO2.
(§2) Survival and Proliferation Assays. Cells were plated the evening before the experiment, and allowed to adhere overnight. For serum-free cell survival assays, cells were plated in media not containing FBS. For cell proliferation assays, cells were plated in regular media. For the chemical genetics screen, cells were treated with either DMSO or the cysteine-reactive fragment for 48 h and cell viability was assessed by Hoescht stain using our previously described methods

Test [2] concerns SW620 colorectal cancer cells. The test can be described thus: Cell proliferation of SW620 cells (Hoescht staining). Type of test: cell-based. Conditions: Homo sapiens, SW-620, cysteine-reactive fragment 50 μM, 48 h, vs DMSO, average of n = 3/group, read-out: SW620 proliferation Ave. As for the experimental part:
as §1, §2

On to `C=CC(=O)Nc1ccc(C(F)(F)F)cc1` [TRH 1-50, N-(4-(trifluoromethyl)phenyl)acrylamide], for which the viability at 50 µM in test [1] stood at 58%. Besides, the activity at 50 µM in test [2] amounted to 76%.
The like results for `C=CC(=O)NCc1ccccc1-c1ccccc1` [DKM 2-59, N-([1,1′-biphenyl]-2-ylmethyl)acrylamide] were, in that order, 66% and 74%.
Turning to `C=CC(=O)NC/C=C(\C)CCC=C(C)C` [DKM 3-42, (E)-N-(3,7-dimethylocta-2,6-dien-1-yl)acrylamide], in test [1], the viability at 50 µM came out at 104%. In test [2], the activity at 50 µM was 112%.
On the same counts, the results for `C=CC(=O)NC(C)CC` (stereo not drawn) [DKM 3-32, N-(sec-butyl)acrylamide] are 70% and 95%.
The like results for `C=CC(=O)NCc1ccc(Br)cc1` [DKM 2-43, N-(4-bromobenzyl)acrylamide] were, in that order, 84% and 128%.
As to `C=CC(=O)N(C1CCCCC1)C1CCCCC1` [DKM 2-114, N,N-dicyclohexylacrylamide], the viability at 50 µM in test [1] was 76%. The activity at 50 µM in test [2] is 111%.
For the molecule `C=CC(=O)NCc1cc(C)cc(C)c1` [DKM 2-47, N-(3,5-dimethylbenzyl)acrylamide], in test [1], the viability at 50 µM was determined as 78%. The activity at 50 µM in test [2] is 112%.
For the molecule `C=CC(=O)NC1CCCC1` [DKM 2-108, N-cyclopentylacrylamide], the viability at 50 µM in test [1] stood at 61%. In addition, in test [2], the activity at 50 µM is 95%.
With `O=C(CCl)NCc1ccccc1Cl` [DKM 2-94, 2-Chloro-N-(2-chlorobenzyl)acetamide], in test [1], the viability at 50 µM is 43%. In addition, the activity at 50 µM in test [2] was 32%.
As to `CCOC(=O)N1CCN(C(=O)CCl)CC1` [DKM 2-52, Ethyl 4-(2-chloroacetyl)piperazine-1-carboxylate], the viability at 50 µM in test [1] was found to be 92%. For the same molecule, the activity at 50 µM in test [2] was 53%.
The like results for `C=CC(=O)N1CCN(c2ccccc2)CC1` [DKM 3-5, 1-(4-phenylpiperazin-1-yl)prop-2-en-1-one] were, in that order, 59% and 82%.
The like results for `C=CC(=O)NC(c1ccccc1)(c1ccccc1)c1ccccc1` [DKM 3-41, N-tritylacrylamide] were, in that order, 55% and 93%.
As to `C=CC(=O)Nc1ccc(SC)cc1` [DKM 3-10, N-(4-(methylthio)phenyl)acrylamide], the viability at 50 µM in test [1] was 41%. Besides, in test [2], the activity at 50 µM was determined as 79%.
For the molecule `C=CC(=O)N(c1ccccc1)c1ccccc1` [DKM 3-70, N,N-diphenylacrylamide], the viability at 50 µM in test [1] was found to be 57%. Further, the activity at 50 µM in test [2] was 53%.
As for `Cc1ccccc1CNC(=O)CCl` [TRH 1-55, 2-Chloro-N-(2-methylbenzyl)acetamide], the viability at 50 µM in test [1] came out at 47%. Moreover, in test [2], the activity at 50 µM amounted to 53%.
As for `C=CC(=O)N1CCOCC1` [DKM 2-49, 1-morpholinoprop-2-en-1-one], the viability at 50 µM in test [1] came out at 80%. Besides, in test [2], the activity at 50 µM came to 109%.
With `CCCN(C)C(=O)CCl` [TRH 1-53, 2-Chloro-N-methyl-N-propylacetamide], in test [1], the viability at 50 µM was 69%. Besides, in test [2], the activity at 50 µM amounted to 72%.
The like results for `C=CC(=O)NCc1ccc(OC)cc1` [DKM 2-33, N-(4-methoxybenzyl)acrylamide] were, in that order, 92% and 115%.
`COc1ccc(CNC(=O)CCl)cc1OC` [DKM 2-93, 2-chloro-N-(3,4-dimethoxybenzyl)acetamide]: the viability at 50 µM in test [1] came to 74%. In addition, the activity at 50 µM in test [2] worked out at 57%.
Turning to `C=CC(=O)NC(c1ccccc1)c1ccccc1` [DKM 3-4, N-benzhydrylacrylamide], the viability at 50 µM in test [1] turned out to be 122%. The activity at 50 µM in test [2] is 120%.
On to `C=CC(=O)NCCCc1ccccc1` [DKM 2-50, N-(3-phenylpropyl)acrylamide], for which the viability at 50 µM in test [1] amounted to 89%. Besides, in test [2], the activity at 50 µM worked out at 130%.
The like results for `C=CC(=O)NCCCSC` [DKM 3-12, N-(3-(methylthio)propyl)acrylamide] were, in that order, 129% and 106%.
On to `C=CC(=O)N(C)Cc1ccccc1` [DKM 2-95, N-benzyl-N-methylacrylamide], for which the viability at 50 µM in test [1] came to 52%. Moreover, the activity at 50 µM in test [2] worked out at 85%.
On the same counts, the results for `C=CC(=O)Nc1ccc(-c2ccc(CC)cc2)cc1` [DKM 3-16, N-(4′-ethyl-[1,1′-biphenyl]-4-yl)acrylamide] are 34% and 60%.
Take `C=CC(=O)NCCOc1ccccc1OC` [DKM 2-58, N-(2-(2-methoxyphenoxy)ethyl)acrylamide]: the viability at 50 µM in test [1] amounted to 98%. Moreover, the activity at 50 µM in test [2] stood at 116%.
As to `C=CC(=O)Nc1ccc(-c2ccc(C#N)cc2)cc1` [DKM 2-98, N-(4′-cyano-[1,1′-biphenyl]-4-yl)acrylamide], the viability at 50 µM in test [1] came to 52%. For the same molecule, the activity at 50 µM in test [2] was determined as 42%.
The like results for `C=CC(=O)NCC(OCC)OCC` [DKM 3-9, N-(2,2-diethoxyethyl)acrylamide] were, in that order, 75% and 100%.
As for `C=CC(=O)NCCN1CCOCC1` [DKM 2-100, N-(2-morpholinoethyl)acrylamide], the viability at 50 µM in test [1] was found to be 138%. Moreover, in test [2], the activity at 50 µM was determined as 100%.
For the molecule `C=CC(=O)NCC1CCCCC1` [DKM 3-13, N-(cyclohexylmethyl)acrylamide], in test [1], the viability at 50 µM worked out at 77%. In addition, in test [2], the activity at 50 µM worked out at 94%.
Take `C=CC(=O)Nc1ccc(Cl)cc1` [DKM 2-107, N-(4-chlorophenyl)acrylamide]: in test [1], the viability at 50 µM was 86%. The activity at 50 µM in test [2] is 99%.
On the same counts, the results for `C=CC(=O)NCc1ccc(OC)c(OC)c1` [DKM 2-110, N-(3,4-dimethoxybenzyl)acrylamide] are 112% and 95%.
On to `C=CC(=O)Nc1ccccc1` [TRH 1-19, N-Phenylacrylamide], for which the viability at 50 µM in test [1] stood at 101%. In test [2], the activity at 50 µM turned out to be 119%.
The like results for `C=CC(=O)NC(C)CCc1ccccc1` (stereo not drawn) [DKM 2-32, N-(4-phenylbutan-2-yl)acrylamide] were, in that order, 91% and 114%.
For the molecule `C=CC(=O)NC1CCCCC1` [DKM 2-106, N-cyclohexylacrylamide], the viability at 50 µM in test [1] was 144%. Further, the activity at 50 µM in test [2] was determined as 100%.
On to `C=CC(=O)N1CCN(c2ccc(C(C)=O)cc2)CC1` [DKM 3-29, 1-(4-(4-acetylphenyl)piperazin-1-yl)prop-2-en-1-one], for which the viability at 50 µM in test [1] came out at 79%. Also, the activity at 50 µM in test [2] stood at 121%.
Turning to `O=C(CCl)NCc1ccccc1` [DKM 2-67, N-benzyl-2-chloroacetamide], in test [1], the viability at 50 µM stood at 87%. Besides, the activity at 50 µM in test [2] worked out at 73%.
On to `C=CC(=O)NCCCOC` [DKM 2-103, N-(3-methoxypropyl)acrylamide], for which the viability at 50 µM in test [1] was 135%. Besides, the activity at 50 µM in test [2] is 112%.
For the molecule `C=CC(=O)Nc1ccc(F)cc1` [DKM 3-31, N-(4-fluorophenyl)acrylamide], the viability at 50 µM in test [1] is 65%. Also, the activity at 50 µM in test [2] came to 99%.
The like results for `C=CC(=O)NCc1ccc(OC)cc1OC` [TRH 1-13, N-(2,4-dimethoxybenzyl)acrylamide] were, in that order, 94% and 128%.
As for `C=CC(=O)Nc1ccc2c(c1)OCO2` [DKM 2-86, N-(benzo[d][1,3]dioxol-5-yl)acrylamide], the viability at 50 µM in test [1] came out at 109%. Besides, in test [2], the activity at 50 µM is 102%.
On the same counts, the results for `C=CC(=O)N1CCC(c2ccccc2)CC1` [DKM 2-97, 1-(4-phenylpiperidin-1-yl)prop-2-en-1-one] are 106% and 96%.
For `C=CC(=O)NCCCCCCCCCC` [TRH 1-12, N-decylacrylamide], the viability at 50 µM in test [1] is 49%. In addition, the activity at 50 µM in test [2] was determined as 89%.
`C=CC(=O)N1CCCCC1CC` (stereo not drawn) [TRH 1-27, 1-(2-ethylpiperidin-1-yl)prop-2-en-1-one]: the viability at 50 µM in test [1] turned out to be 144%. Further, the activity at 50 µM in test [2] came out at 125%.
As for `C=CC(=O)NCc1ccccc1C` [TRH 1-54, N-(2-methylbenzyl)acrylamide], in test [1], the viability at 50 µM amounted to 175%. For the same molecule, the activity at 50 µM in test [2] was found to be 139%.
Turning to `COc1ccc(CNC(=O)CCl)cc1` [DKM 2-83, 2-chloro-N-(4-methoxybenzyl)acetamide], in test [1], the viability at 50 µM was 66%. Further, in test [2], the activity at 50 µM was determined as 48%.
Turning to `C=CC(=O)Nc1ccc(C(C)=O)cc1` [DKM 3-7, N-(4-acetylphenyl)acrylamide], the viability at 50 µM in test [1] was determined as 51%. Also, in test [2], the activity at 50 µM amounted to 100%.
The like results for `CC(CCc1ccccc1)NC(=O)CCl` (stereo not drawn) [DKM 2-76, 2-Chloro-N-(4-phenylbutan-2-yl)acetamide] were, in that order, 44% and 50%.
With `C=CC(=O)NC(C)c1ccccc1` (stereo not drawn) [TRH 1-20, N-(1-phenylethyl)acrylamide], the viability at 50 µM in test [1] worked out at 114%. In addition, the activity at 50 µM in test [2] is 121%.
As for `C=CC(=O)N1CCc2ccccc21` [DKM 2-101, 1-(indolin-1-yl)prop-2-en-1-one], in test [1], the viability at 50 µM was 39%. The activity at 50 µM in test [2] was determined as 96%.
`CCCCCCCCCCNC(=O)CCl` [DKM 2-72, 2-Chloro-N-decylacetamide]: the viability at 50 µM in test [1] amounted to 96%. The activity at 50 µM in test [2] was determined as 100%.
Take `O=C(CCl)NCc1ccc(F)cc1` [DKM 2-80, 2-chloro-N-(4-fluorobenzyl)acetamide]: the viability at 50 µM in test [1] worked out at 47%. In addition, the activity at 50 µM in test [2] came out at 48%.
